Laboratory results taken from the NIST ThermoML archive (doi:10.1021/je400157s).

Assays:
[1] = molar heat capacity at constant pressure; details: 101.33 kPa, Liquid, Small sample (50 mg) DSC
[2] = Liquid; for mass density: 101.33 kPa, Vibrating tube method; for speed of sound: Pulse-echo method

CCCCCCCCCC(=O)OCC [ethyl decanoate]
Details	mass density, [2] [kg/m3]	molar heat capacity at constant pressure, [1] [J/K/mol]
283.15 K	872.11	–
286.16 K	–	397.73
288.15 K	868.06	398.53
293.15 K	864	400.88
298.15 K	859.94	403.34
303.15 K	855.88	–
303.16 K	–	405.67
308.14 K	851.82	–
308.16 K	–	408.17
313.14 K	847.75	–
313.16 K	–	410.93
318.15 K	843.68	413.64
323.15 K	839.6	416.52
328.15 K	835.52	–
328.16 K	–	419.55
333.14 K	–	422.31
333.15 K	831.43	–
338.14 K	827.33	–
338.15 K	–	425.46
341.11 K	–	427.36
343.15 K	823.23	–
348.15 K	819.11	–
353.14 K	814.99	–

[2]
Details	speed of sound [m/s]
292.9 K, 30390 kPa	1453.5
292.9 K, 45590 kPa	1511.7
292.9 K, 60790 kPa	1565.9
292.9 K, 75990 kPa	1616.7
292.9 K, 101320 kPa	1693.9
292.91 K, 15200 kPa	1389.4
292.91 K, 91180 kPa	1664.3
292.92 K, 100 kPa	1313.8
298.17 K, 30390 kPa	1436.1
298.17 K, 45590 kPa	1494.9
298.17 K, 60790 kPa	1549.4
298.17 K, 75990 kPa	1601.3
298.17 K, 91180 kPa	1648.6
298.17 K, 101320 kPa	1678.8
298.18 K, 100 kPa	1293.9
298.18 K, 15200 kPa	1370.6
303.16 K, 100 kPa	1275.2
303.16 K, 30390 kPa	1419.1
303.16 K, 45590 kPa	1479.6
303.16 K, 60790 kPa	1534.7
303.16 K, 75990 kPa	1586.9
303.16 K, 91180 kPa	1635
303.16 K, 101320 kPa	1665.9
303.17 K, 15200 kPa	1353.1
308.13 K, 45590 kPa	1464.6
308.13 K, 75990 kPa	1572.1
308.13 K, 101320 kPa	1652.9
308.14 K, 100 kPa	1256.8
308.14 K, 15200 kPa	1335.4
308.14 K, 30390 kPa	1403
308.14 K, 60790 kPa	1520.1
308.14 K, 91180 kPa	1621.8
313.09 K, 45590 kPa	1449.8
313.09 K, 75990 kPa	1559.2
313.09 K, 91180 kPa	1608.6
313.09 K, 101320 kPa	1639
313.1 K, 30390 kPa	1387.5
313.1 K, 60790 kPa	1506.2
313.11 K, 100 kPa	1238.5
313.11 K, 15200 kPa	1318.7
318.26 K, 75990 kPa	1544.9
318.26 K, 91180 kPa	1594.7
318.26 K, 101320 kPa	1626.5
318.27 K, 15200 kPa	1301.6
318.27 K, 30390 kPa	1371.7
318.27 K, 45590 kPa	1434.9
318.27 K, 60790 kPa	1491.6
318.28 K, 100 kPa	1219.7
